Where a SMILES comes first, the peptide text is derived from it.
Columns and labels:
[1] = molecular target: T1, Solute carrier organic anion transporter family member 2B1 (Homo sapiens, UniProt O94956); assay: Inhibition of human liver OATP2B1 expressed in HEK293 Flp-In cells assessed as reduction in [3H]E3S uptake at 20 uM incubated for 5 mins by scintillation counting; details: hek293, 5 min
T1 sequence (O94956 whole entry): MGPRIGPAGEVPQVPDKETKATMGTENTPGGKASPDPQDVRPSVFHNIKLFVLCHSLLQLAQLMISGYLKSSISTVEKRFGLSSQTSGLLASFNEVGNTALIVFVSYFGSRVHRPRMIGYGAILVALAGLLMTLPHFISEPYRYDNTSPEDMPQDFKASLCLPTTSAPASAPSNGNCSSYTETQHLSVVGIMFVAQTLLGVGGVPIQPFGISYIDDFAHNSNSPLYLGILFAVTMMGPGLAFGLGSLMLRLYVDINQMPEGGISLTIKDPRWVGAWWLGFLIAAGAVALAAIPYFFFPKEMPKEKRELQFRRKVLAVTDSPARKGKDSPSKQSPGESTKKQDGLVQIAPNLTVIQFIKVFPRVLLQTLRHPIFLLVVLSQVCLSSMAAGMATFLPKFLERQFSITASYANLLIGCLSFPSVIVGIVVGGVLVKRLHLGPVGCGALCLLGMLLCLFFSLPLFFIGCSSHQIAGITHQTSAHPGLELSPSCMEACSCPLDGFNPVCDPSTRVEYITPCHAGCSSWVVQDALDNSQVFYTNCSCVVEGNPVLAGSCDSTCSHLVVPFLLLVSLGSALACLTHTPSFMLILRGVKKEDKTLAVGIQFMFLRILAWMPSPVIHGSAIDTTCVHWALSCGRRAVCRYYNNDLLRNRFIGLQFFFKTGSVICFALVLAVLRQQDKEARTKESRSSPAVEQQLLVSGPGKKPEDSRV

[2] = molecular target: T2, Solute carrier organic anion transporter family member 1B1 (Homo sapiens, UniProt Q9Y6L6); assay: Inhibition of human liver OATP1B1 expressed in HEK293 Flp-In cells assessed as reduction in E17-betaG uptake at 20 uM by scintillation counting; details: hek293, 20 µM
T2 sequence (Q9Y6L6 whole entry): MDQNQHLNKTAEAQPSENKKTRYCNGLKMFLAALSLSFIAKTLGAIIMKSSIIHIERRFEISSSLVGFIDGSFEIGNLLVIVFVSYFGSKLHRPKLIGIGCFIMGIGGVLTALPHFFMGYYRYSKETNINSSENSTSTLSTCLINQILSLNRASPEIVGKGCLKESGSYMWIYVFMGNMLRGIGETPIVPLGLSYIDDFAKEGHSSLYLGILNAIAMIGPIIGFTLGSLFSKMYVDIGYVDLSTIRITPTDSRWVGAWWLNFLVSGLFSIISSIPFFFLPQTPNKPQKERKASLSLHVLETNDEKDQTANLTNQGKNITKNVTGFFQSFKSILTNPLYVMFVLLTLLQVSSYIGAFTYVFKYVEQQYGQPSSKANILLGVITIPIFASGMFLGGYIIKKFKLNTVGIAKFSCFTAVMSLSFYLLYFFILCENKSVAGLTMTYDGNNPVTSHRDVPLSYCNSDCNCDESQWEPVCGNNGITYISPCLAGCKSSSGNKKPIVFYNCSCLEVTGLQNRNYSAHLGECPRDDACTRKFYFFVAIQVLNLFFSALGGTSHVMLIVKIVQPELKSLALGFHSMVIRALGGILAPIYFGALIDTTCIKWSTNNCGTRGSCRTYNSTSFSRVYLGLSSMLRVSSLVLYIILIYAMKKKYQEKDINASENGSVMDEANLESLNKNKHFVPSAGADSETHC

[3] = molecular target: T3, Solute carrier organic anion transporter family member 1B3 (Homo sapiens, UniProt Q9NPD5); assay: Inhibition of human liver OATP1B3 expressed in HEK293 Flp-In cells assessed as reduction in [3H]E17-betaG uptake at 20 uM incubated for 5 mins by scintillation counting; details: hek293, 5 min
T3 sequence (Q9NPD5 whole entry): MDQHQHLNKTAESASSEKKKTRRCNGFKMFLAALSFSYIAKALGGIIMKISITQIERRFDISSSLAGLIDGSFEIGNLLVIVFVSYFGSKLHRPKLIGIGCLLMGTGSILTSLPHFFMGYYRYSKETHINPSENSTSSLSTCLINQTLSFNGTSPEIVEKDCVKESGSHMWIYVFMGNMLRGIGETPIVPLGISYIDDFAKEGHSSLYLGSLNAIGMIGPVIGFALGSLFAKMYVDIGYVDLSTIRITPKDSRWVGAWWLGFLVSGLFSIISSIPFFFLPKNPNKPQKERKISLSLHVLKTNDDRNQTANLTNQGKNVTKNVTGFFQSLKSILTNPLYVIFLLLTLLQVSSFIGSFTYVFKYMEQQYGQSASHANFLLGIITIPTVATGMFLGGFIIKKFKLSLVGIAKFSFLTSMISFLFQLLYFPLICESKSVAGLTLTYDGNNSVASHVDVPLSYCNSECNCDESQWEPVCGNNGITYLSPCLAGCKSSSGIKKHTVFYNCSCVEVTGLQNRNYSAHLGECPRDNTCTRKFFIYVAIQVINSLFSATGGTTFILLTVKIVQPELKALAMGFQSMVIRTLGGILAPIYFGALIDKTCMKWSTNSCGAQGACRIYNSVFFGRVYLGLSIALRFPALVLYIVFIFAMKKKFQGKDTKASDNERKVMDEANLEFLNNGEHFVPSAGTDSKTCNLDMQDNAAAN

SMILES | INH [1] | INH [2] | INH [3]
CCOC(=O)C1=C(C)NC(C)=C(C(=O)OC)C1c1cccc(Cl)c1Cl (configuration not stated) [FELODIPINE] | 21.4% | 36.6% | 18.4%
CC(NCCC(c1ccccc1)c1ccccc1)c1ccccc1 (configuration not stated) [FENDILINE] | -118.7% | 15% | 20.4%
CC(C)OC(=O)C(C)(C)Oc1ccc(C(=O)c2ccc(Cl)cc2)cc1 [FENOFIBRATE] | 34.2% | 5.4% | -10.8%
OC(Cn1cncn1)(Cn1cncn1)c1ccc(F)cc1F [FLUCONAZOLE] | 34.1% | 7.4% | 7.5%
CNCCC(Oc1ccc(C(F)(F)F)cc1)c1ccccc1 (configuration not stated) [FLUOXETINE] | 22.6% | 21.8% | 14.3%
CC(C)C(=O)Nc1ccc([N+](=O)[O-])c(C(F)(F)F)c1 [FLUTAMIDE] | 65.8% | 6.8% | 9%
COCCCC/C(=N\OCCN)c1ccc(C(F)(F)F)cc1 [FLUVOXAMINE] | 39% | 43.8% | 29.2%
Cc1nc2c([nH]1)c(=O)n(C)c(=O)n2Cc1ccco1 [FURAFYLLINE] | 18.1% | -14.7% | 0.7%
Cc1ccc(C)c(OCCCC(C)(C)C(=O)O)c1 [GEMFIBROZIL] | 15.1% | 59.3% | 14.4%
O=c1c(-c2ccc(O)cc2)coc2cc(O)cc(O)c12 [GENISTEIN] | 67.9% | 84.9% | -5%
C[C@H](CCC(=O)NCC(=O)O)[C@H]1CC[C@H]2[C@@H]3[C@H](O)C[C@@H]4C[C@H](O)CC[C@]4(C)[C@H]3CC[C@]12C [GLYCOCHENODEOXYCHOLATE] | 65.3% | 80.2% | 72%
C[C@H](CCC(=O)NCC(=O)O)[C@H]1CC[C@H]2[C@@H]3CC[C@@H]4C[C@H](O)CC[C@]4(C)[C@H]3C[C@H](O)[C@]12C [GLYCODEOXYCHOLATE] | 53.8% | 85% | 79%
NCC(=O)N1CCC[C@H]1C(=O)O [GLYCYL PROLINE] (H-Gly-Pro-OH) | 24.1% | -8.4% | 9.6%
CC1(C)[C@@H](O[C@H]2O[C@H](C(=O)O)[C@@H](O)[C@H](O)[C@H]2O[C@@H]2O[C@H](C(=O)O)[C@@H](O)[C@H](O)[C@H]2O)CC[C@]2(C)[C@H]3C(=O)C=C4[C@@H]5C[C@@](C)(C(=O)O)CC[C@]5(C)CC[C@@]4(C)[C@]3(C)CC[C@@H]12 [GLYCYRRHIZIN] | 28.7% | 65.8% | 90.9%
CN[C@@H]1C[C@H](N)[C@@H](O)[C@H](O[C@H]2O[C@H](CO)[C@H](O)[C@@H]3O[C@@]4(O[C@@H]23)O[C@H]([C@H](N)CO)[C@H](O)[C@H](O)[C@H]4O)[C@H]1O [HYGROMYCIN] | 31.5% | 32.8% | -4.2%
CC(C)Cc1ccc(C(C)C(=O)O)cc1 (configuration not stated) [IBUPROFEN] | 13.5% | 47.3% | -6.6%
CN(C)CCCN1c2ccccc2CCc2ccccc21 [IMIPRAMINE] | 16.9% | 26.9% | -2.4%

SMILES | INH [1] | INH [2] | INH [3]
CC1(C)C(/C=C/C=C/C=C/C=C2/N(CCCCS(=O)(=O)[O-])c3ccc4ccccc4c3C2(C)C)=[N+](CCCCS(=O)(=O)[O-])c2ccc3ccccc3c21.[Na+] [INDOCYANINE GREEN] | 79.2% | 86.1% | 100.1%
COc1ccc2c(c1)c(CC(=O)O)c(C)n2C(=O)c1ccc(Cl)cc1 [INDOMETHACIN] | -82.4% | 88.6% | 48.6%
CCc1c2c(nc3ccc(OC(=O)N4CCC(N5CCCCC5)CC4)cc13)-c1cc3c(c(=O)n1C2)COC(=O)[C@]3(O)CC [IRINOTECAN] | 16.3% | 40.5% | 26.9%
NNC(=O)c1ccncc1 [ISONIAZID] | 23.8% | 29.9% | 18.7%
COC(=O)C1=C(C)NC(C)=C(C(=O)OC(C)C)C1c1cccc2nonc12 (configuration not stated) [ISRADIPINE] | 12% | 47.5% | 7.7%
CCC(C)n1ncn(-c2ccc(N3CCN(c4ccc(OCC5COC(Cn6cncn6)(c6ccc(Cl)cc6Cl)O5)cc4)CC3)cc2)c1=O (configuration not stated) [ITRACONAZOLE] | 59.8% | 22.3% | -2.3%
CC(=O)N1CCN(c2ccc(OCC3COC(Cn4ccnc4)(c4ccc(Cl)cc4Cl)O3)cc2)CC1 (configuration not stated) [KETOCONAZOLE] | 44% | 53.6% | 24.7%
Nc1nnc(-c2cccc(Cl)c2Cl)c(N)n1 [LAMOTRIGINE] | 13.6% | 24.9% | 14.5%
Cc1c(OCC(F)(F)F)ccnc1C[S+]([O-])c1nc2ccccc2[nH]1 (configuration not stated) [LANSOPRAZOLE] | -75.7% | 31.4% | 23.3%
NCCCC[C@H](N[C@@H](CCc1ccccc1)C(=O)O)C(=O)N1CCC[C@H]1C(=O)O [LISINOPRIL ANHYDROUS] | 19.2% | 4.6% | 9%
CN(C)C(=O)C(CCN1CCC(O)(c2ccc(Cl)cc2)CC1)(c1ccccc1)c1ccccc1 [LOPERAMIDE] | 19.6% | 32.5% | 32.4%
Cc1cccc(C)c1OCC(=O)N[C@@H](Cc1ccccc1)[C@@H](O)C[C@H](Cc1ccccc1)NC(=O)[C@H](C(C)C)N1CCCNC1=O [LOPINAVIR] | 86.4% | 85.8% | 84.6%
CC[C@H](C)C(=O)O[C@H]1C[C@@H](C)C=C2C=C[C@H](C)[C@H](CC[C@@H]3C[C@@H](O)CC(=O)O3)[C@H]21 [LOVASTATIN] | -17.9% | 66.5% | 21.3%
CCC1(c2ccccc2)NC(=O)N(C)C1=O (configuration not stated) [MEPHENYTOIN] | 32.9% | -5.7% | -0.6%
CN(Cc1cnc2nc(N)nc(N)c2n1)c1ccc(C(=O)N[C@@H](CCC(=O)O)C(=O)O)cc1 [METHOTREXATE] | -13.4% | 27.4% | 17.2%
COc1c2occc2cc2ccc(=O)oc12 [METHOXSALEN] | -1.6% | 38.1% | 8.9%
COCCc1ccc(OCC(O)CNC(C)C)cc1 (configuration not stated) [METOPROLOL] | 30.5% | 28.1% | 19.8%

— ChEMBL document CHEMBL2163248, “Classification of inhibitors of hepatic organic anion transporting polypeptides (OATPs): influence of protein expression on drug-drug interactions” (J Med Chem, 2012)
